± gives the standard deviation of the averaged measurements.
Experiments:
[1] = compound: C[C@@H]1CN(CC(=O)Nc2ccc3c(c2)Cc2cccc(-c4cc(=O)cc(N5CCOCC5)o4)c2S3)C[C@H](C)O1; assay: surviving fraction relative to DMSO-only wells; higher = less growth inhibition; details: exposure time: 5 days
Summary of the method: (§1)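 Tumour cell lines in log phase were plated in 384-well plates at 250–500 cells per well, then, after 24 hours, exposed continuously for five days to inhibitors at 0.5, 1, 5, 10, 50, 100, 500 and 1000 nM. Viability came from CellTiter-Glo luminescence, and surviving fraction is that signal normalised to the median of DMSO-only wells. Plates were read after 10 minutes at room temperature, and each line, screened three times, was kept only when replicate Pearson r was >0.7 and median Z' was >0.3.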

BLEOMYCIN = compound: Cc1c(N)nc([C@H](CC(N)=O)NC[C@H](N)C(N)=O)nc1C(=O)N[C@H](C(=O)N[C@H](C)[C@@H](O)[C@H](C)C(=O)N[C@H](C(=O)NCCc1nc(-c2nc(C(=O)NCCC[S+](C)C)cs2)cs1)[C@@H](C)O)[C@@H](OC1OC(CO)C(O)C(O)C1OC1OC(CO)C(O)C(OC(N)=O)C1O)c1cnc[nH]1 [BLEOMYCIN]; assay: as above; details: exposure time: 5 days
Summary of the method: as §1

Test System	surviving fraction ([1]; 0.5 nM)	surviving fraction ([1]; 1 nM)	surviving fraction ([1]; 5 nM)	surviving fraction ([1]; 10 nM)	surviving fraction ([1]; 50 nM)	surviving fraction ([1]; 100 nM)	surviving fraction ([1]; 500 nM)	surviving fraction ([1]; 1000 nM)	surviving fraction (BLEOMYCIN; 0.5 nM)	surviving fraction (BLEOMYCIN; 1 nM)	surviving fraction (BLEOMYCIN; 5 nM)	surviving fraction (BLEOMYCIN; 10 nM)	surviving fraction (BLEOMYCIN; 50 nM)	surviving fraction (BLEOMYCIN; 100 nM)	surviving fraction (BLEOMYCIN; 500 nM)	surviving fraction (BLEOMYCIN; 1000 nM)
22RV1 PROSTATE	1.07 ± 0.068	1.07 ± 0.021	1.02 ± 0.045	1.04 ± 0.044	1.12 ± 0.07	1.12 ± 0.074	1.08 ± 0.09	1.08 ± 0.031	0.962 ± 0.044	0.979 ± 0.053	0.962 ± 0.029	0.887 ± 0.026	0.922 ± 0.0089	0.886 ± 0.051	0.738 ± 0.032	0.573 ± 0.088
93VU HEADNECK	0.955 ± 0.062	1.09 ± 0.041	1.07 ± 0.069	1.05 ± 0.029	0.968 ± 0.024	0.943 ± 0.067	0.893 ± 0.045	0.836 ± 0.035	0.8 ± 0.006	0.83 ± 0.058	0.785 ± 0.011	0.783 ± 0.015	0.764 ± 0.058	0.633 ± 0.023	0.386 ± 0.025	0.327 ± 0.066
143B BONE	1.03 ± 0.034	0.994 ± 0.016	1.02	1.02 ± 0.03	1.03 ± 0.035	1.01 ± 0.013	1 ± 0.011	0.9405 ± 0.0064	0.978 ± 0.023	0.98 ± 0.023	0.995 ± 0.012	1.01 ± 0.042	0.946 ± 0.0014	0.977 ± 0.0014	0.82 ± 0.03	0.612 ± 0.028
A549 LUNG	1.05 ± 0.049	1.05 ± 0.025	1.08 ± 0.02	1.08 ± 0.021	1.07 ± 0.012	1.098 ± 0.0099	1.1 ± 0.016	1.13 ± 0.032	0.932 ± 0.023	0.94 ± 0.032	0.956 ± 0.023	0.915 ± 0.046	1 ± 0.042	1.01 ± 0.018	0.825 ± 0.019	0.593 ± 0.032
ASKA SYNOVIAL	1.17 ± 0.013	1.21 ± 0.12	1.26 ± 0.11	1.21 ± 0.093	1.17 ± 0.059	1.15 ± 0.1	1.13 ± 0.1	0.978 ± 0.14	0.897 ± 0.1	0.895 ± 0.046	0.94 ± 0.096	0.931 ± 0.028	0.811 ± 0.027	0.689 ± 0.026	0.427 ± 0.029	0.343 ± 0.015
BT20 BREAST	1.04 ± 0.052	1.13 ± 0.044	1.1 ± 0.1	1.06 ± 0.081	0.843 ± 0.11	0.894 ± 0.089	0.902 ± 0.076	0.741 ± 0.045	0.766 ± 0.062	0.742 ± 0.02	0.718 ± 0.045	0.768 ± 0.06	0.849 ± 0.071	0.688 ± 0.14	0.48 ± 0.087	0.353 ± 0.042
BT549 BREAST	1.1 ± 0.25	0.918 ± 0.16	0.996 ± 0.083	1.08 ± 0.11	0.738 ± 0.14	0.741 ± 0.14	0.774 ± 0.14	0.658 ± 0.27	0.82 ± 0.091	0.818 ± 0.16	0.637 ± 0.1	0.599 ± 0.11	0.421 ± 0.053	0.304 ± 0.053	0.121 ± 0.011	0.122 ± 0.048
C33A CERVIX	0.963 ± 0.082	1.01 ± 0.1	1.06 ± 0.051	1.1 ± 0.074	1.06 ± 0.067	1.14 ± 0.14	0.973 ± 0.059	0.827 ± 0.1	0.925 ± 0.11	0.98 ± 0.039	0.984 ± 0.13	0.827 ± 0.062	0.435 ± 0.014	0.334 ± 0.02	0.163 ± 0.015	0.124 ± 0.01
CADOES1 SOFT TISSUE	0.951 ± 0.15	0.965 ± 0.065	0.974 ± 0.07	0.981 ± 0.084	1.11 ± 0.055	0.995 ± 0.1	1.01 ± 0.096	1.02 ± 0.032	0.943 ± 0.079	0.967 ± 0.089	0.789 ± 0.12	0.776 ± 0.067	0.683 ± 0.051	0.503 ± 0.14	0.285 ± 0.019	0.116 ± 0.017
CAL51 BREAST	0.954 ± 0.023	0.939 ± 0.028	1.02 ± 0.019	0.997 ± 0.069	1.01 ± 0.028	1.02 ± 0.027	0.922 ± 0.011	0.851 ± 0.026	0.911 ± 0.036	0.893 ± 0.052	0.904 ± 0.018	0.884 ± 0.014	0.729 ± 0.043	0.621 ± 0.037	0.273 ± 0.016	0.17 ± 0.011
